Experiments:
OVCAR-8 = test: Log of molar concentration leading to 50% cell death against ovarian cancer OVCAR-8 cell line was reported; assay type: functional; details: Homo sapiens, read-out: Log LC50 (the source's name) (converted)
MDA-N = test: In vitro total growth inhibition against breast cancer MDA-N cell lines was reported.; assay type: functional; details: Homo sapiens, read-out: Log TGI (converted)
SNB-19 = test: In vitro total growth inhibition against CNS cancer SNB-19 cell lines was reported.; assay type: functional; details: Homo sapiens, read-out: Log TGI (converted)
SK-MEL-28 = test: Log of molar concentration leading to 50% cell death against melanoma SK-MEL-28 cell line was reported; assay type: functional; details: Homo sapiens, read-out: Log LC50 (the source's name) (converted)
MDA-MB-231 [1] = test: Log of molar concentration leading to 50% cell death against breast cancer MDA-MB-231/ATCC cell line was reported; assay type: functional; details: Homo sapiens, read-out: Log LC50 (the source's name) (converted)
HL-60 [2] = test: In vitro total growth inhibition against leukemia HL-60(TB) cell lines was reported.; assay type: functional; details: Homo sapiens, read-out: Log TGI (converted)
EKVX [3] = test: Log of molar concentration leading to 50% cell death against non-small-cell lung cancer EKVX cell line was reported; assay type: functional; details: Homo sapiens, read-out: Log LC50 (the source's name) (converted)
NCI-H46 = test: In vitro growth inhibition against non-small-cell lung cancer […] cell line was reported.; assay type: functional; details: Homo sapiens
COLO 205 [4] = test: In vitro growth inhibition against colon cancer COLO 205 cell line was reported.; assay type: functional; details: Homo sapiens
KM12 = test: In vitro total growth inhibition against colon cancer KM12 cell lines was reported.; assay type: functional; details: Homo sapiens, read-out: Log TGI (converted)
IGROV-1 [5] = test: Log of molar concentration leading to 50% cell death against ovarian cancer IGROV1 cell line was reported; assay type: functional; details: Homo sapiens, read-out: Log LC50 (the source's name) (converted)
HOP-62 [6] = test: In vitro growth inhibition against non-small-cell lung cancer HOP-62 cell line was reported.; assay type: functional; details: Homo sapiens
SF-295 [7] = test: Log of molar concentration leading to 50% cell death against CNS cancer SF-295 cell line was reported; assay type: functional; details: Homo sapiens, read-out: Log LC50 (the source's name) (converted)
MDA-MB-435 [8] = test: In vitro growth inhibition against breast cancer MDA-MB-435 cell line was reported.; details: Homo sapiens
LOX IMVI = test: In vitro growth inhibition against melanoma LOX IMVI cell line was reported.; assay type: functional; details: Homo sapiens
NCI-H226 = test: In vitro growth inhibition against non-small-cell lung cancer NCI-H226 cell line was reported.; assay type: functional; details: Homo sapiens
HOP-62 [9] = test: Log of molar concentration leading to 50% cell death against non-small-cell lung cancer HOP-62 cell line was reported; assay type: functional; details: Homo sapiens, read-out: Log LC50 (the source's name) (converted)
NCI-H23 = test: In vitro growth inhibition against non-small-cell lung cancer NCI-H23 cell line was reported.; assay type: functional; details: Homo sapiens
T47D = test: In vitro growth inhibition against breast cancer […] cell line was reported.; assay type: functional; details: Homo sapiens
HT-29 = test: In vitro growth inhibition against colon cancer HT-29 cell line was reported.; assay type: functional; details: Homo sapiens
COLO 205 [10] = test: Log of molar concentration leading to 50% cell death against colon cancer COLO 205 cell line was reported; assay type: functional; details: Homo sapiens, read-out: Log LC50 (the source's name) (converted)
DU-145 [11] = test: In vitro total growth inhibition against prostate cancer […] cell lines was reported.; assay type: functional; details: Homo sapiens, read-out: Log TGI (converted)
SR [12] = test: In vitro total growth inhibition against leukemia SR cell lines was reported.; assay type: functional; details: Homo sapiens, read-out: Log TGI (converted)
UACC-62 = test: In vitro total growth inhibition against melanoma UACC-62 cell lines was reported.; assay type: functional; details: Homo sapiens, read-out: Log TGI (converted)
EKVX [13] = test: In vitro growth inhibition against non-small-cell lung cancer EKVX cell line was reported.; assay type: functional; details: Homo sapiens
DU-145 [14] = test: In vitro growth inhibition against prostate cancer […] cell line was reported.; assay type: functional; details: Homo sapiens
A498 = test: In vitro total growth inhibition against renal cancer A-498 cell lines was reported.; assay type: functional; details: Homo sapiens, read-out: Log TGI (converted)
UACC-257 = test: In vitro total growth inhibition against melanoma UACC-257 cell line was reported.; assay type: functional; details: Homo sapiens
NCI-H322M [15] = test: Log of molar concentration leading to 50% cell death against non-small-cell lung cancer NCI-H322M cell line was reported; assay type: functional; details: Homo sapiens, read-out: Log LC50 (the source's name) (converted)
NCI/ADR-RES = test: In vitro total growth inhibition against breast cancer NCI/ADR-RES cell lines was reported.; assay type: functional; details: Homo sapiens, read-out: Log TGI (converted)
SR [16] = test: In vitro growth inhibition against leukemia SR cell line was reported.; assay type: functional; details: Homo sapiens
HCC 2998 = test: Log of molar concentration leading to 50% cell death against colon cancer HCC2998 cell line was reported; assay type: functional; details: Homo sapiens, read-out: Log LC50 (the source's name) (converted)
MDA-MB-231 [17] = test: In vitro total growth inhibition against breast cancer MDA-MB-231/ATCC cell lines was reported.; assay type: functional; details: Homo sapiens, read-out: Log TGI (converted)
SF-295 [18] = test: In vitro growth inhibition against CNS cancer SF-295 cell line was reported.; assay type: functional; details: Homo sapiens
SF-539 = test: In vitro growth inhibition against CNS cancer SF-539 cell line was reported.; assay type: functional; details: Homo sapiens
PC-3 [19] = test: Log of molar concentration leading to 50% cell death against prostate cancer PC-3 cell line was reported; assay type: functional; details: Homo sapiens, read-out: Log LC50 (the source's name) (converted)
MOLT-4 = test: In vitro total growth inhibition against leukemia MOLT-4 cell lines was reported.; assay type: functional; details: Homo sapiens, read-out: Log TGI (converted)
SK-MEL-5 = test: In vitro growth inhibition against melanoma SK-MEL-5 cell line was reported.; assay type: functional; details: Homo sapiens
HL-60 [20] = test: Log of molar concentration leading to 50% cell death against leukemia HL-60(TB) cell line was reported; assay type: functional; details: Homo sapiens, read-out: Log LC50 (the source's name) (converted)
CCRF-CEM [21] = test: In vitro total growth inhibition against leukemia CCRF cell lines was reported.; assay type: functional; details: Homo sapiens, read-out: Log TGI (converted)
U-251 = test: In vitro total growth inhibition against CNS cancer U251 cell lines was reported.; assay type: functional; details: Homo sapiens, read-out: Log TGI (converted)
Tumor Cell line [22] = test: In vitro inhibition of 50% cell growth was reported as log of molar concentration for 60 cell lines.; assay type: functional; details: Homo sapiens
HOP-62 [23] = test: In vitro total growth inhibition against non-small-cell lung cancer HOP-62 cell lines was reported.; assay type: functional; details: Homo sapiens, read-out: Log TGI (converted)
Tumor Cell line [24] = test: In vitro total growth inhibition for 50 cell lines was reported as log of molar concentration; assay type: functional, Homo sapiens
PC-3 [25] = test: In vitro growth inhibition against prostate cancer PC-3 cell line was reported.; assay type: functional; details: Homo sapiens
ACHN = test: In vitro growth inhibition against renal cancer ACHN cell line was reported.; assay type: functional; details: Homo sapiens
MDA-MB-435 [26] = test: In vitro total growth inhibition against breast cancer MDA-MB-435 cell lines was reported.; details: Homo sapiens, read-out: Log TGI (converted)
HOP-92 = test: In vitro growth inhibition against non-small-cell lung cancer HOP-92 cell line was reported.; assay type: functional; details: Homo sapiens
CCRF-CEM [27] = test: In vitro growth inhibition against leukemia CCRF-CEM cell line was reported.; assay type: functional; details: Homo sapiens
HCT-116 = test: In vitro total growth inhibition against colon cancer HCT116 cell lines was reported.; assay type: functional; details: Homo sapiens, read-out: Log TGI (converted)
OVCAR-3 = test: In vitro growth inhibition against ovarian cancer OVCAR-3 cell line was reported.; assay type: functional; details: Homo sapiens
SNB-75 = test: In vitro total growth inhibition against CNS cancer SNB-75 cell lines was reported.; assay type: functional; details: Homo sapiens, read-out: Log TGI (converted)
HCT-15 = test: In vitro total growth inhibition against colon cancer HCT-15 cell lines was reported.; assay type: functional; details: Homo sapiens, read-out: Log TGI (converted)
NCI-H322M [28] = test: In vitro growth inhibition against non-small-cell lung cancer […] cell line was reported.; assay type: functional; details: Homo sapiens
M14 = test: In vitro total growth inhibition against melanoma M14 cell lines was reported.; assay type: functional; details: Homo sapiens, read-out: Log TGI (converted)
RXF 393 = test: Log of molar concentration leading to 50% cell death against renal cancer RXF 393 cell line was reported; assay type: functional; details: Homo sapiens, read-out: Log LC50 (the source's name) (converted)
BT-549 = test: In vitro total growth inhibition against breast cancer BT 549 cell line was reported.; assay type: functional; details: Homo sapiens, read-out: Log TGI (converted)
Hs-578T = test: In vitro growth inhibition against breast cancer HS 578T cell line was reported.; assay type: functional; details: Homo sapiens
IGROV-1 [29] = test: In vitro total growth inhibition against ovarian cancer IGROV1 cell lines was reported.; assay type: functional; details: Homo sapiens, read-out: Log TGI (converted)

## O=C(Nc1nccs1)c1cc2c(cc1Cl)Sc1nccn1S2(=O)=O
OVCAR-8
  CC50: 79.4 µM
MDA-N
  TGI: 33.1 µM
SNB-19
  TGI: 37.2 µM
SK-MEL-28
  CC50: 70.8 µM
MDA-MB-231 [1]
  CC50: 67.6 µM
HL-60 [2]
  TGI: 30.9 µM
EKVX [3]
  CC50: 97.7 µM
NCI-H46
  GI50: 15.8 µM
COLO 205 [4]
  GI50: 17 µM
KM12
  TGI: 26.3 µM
IGROV-1 [5]
  CC50: 75.9 µM
HOP-62 [6]
  GI50: 14.8 µM
SF-295 [7]
  CC50: 64.6 µM
MDA-MB-435 [8]
  GI50: 17.4 µM
LOX IMVI
  GI50: 11 µM
NCI-H226
  GI50: 19.5 µM
HOP-62 [9]
  CC50: 61.7 µM
NCI-H23
  GI50: 17 µM
T47D
  GI50: 23.4 µM
HT-29
  GI50: 20 µM
COLO 205 [10]
  CC50: 56.2 µM
DU-145 [11]
  TGI: 30.2 µM
SR [12]
  TGI: 12 µM
UACC-62
  TGI: 27.5 µM
EKVX [13]
  GI50: 20.4 µM
DU-145 [14]
  GI50: 16.2 µM
A498
  TGI: 34.7 µM
UACC-257
  GI50: 13.8 µM
NCI-H322M [15]
  CC50: 64.6 µM
NCI/ADR-RES
  TGI: 44.7 µM
SR [16]
  GI50: 3.02 µM
HCC 2998
  CC50: 53.7 µM
MDA-MB-231 [17]
  TGI: 36.3 µM
SF-295 [18]
  GI50: 18.2 µM
SF-539
  GI50: 19.5 µM
PC-3 [19]
  CC50: 66.1 µM
MOLT-4
  TGI: 41.7 µM
SK-MEL-5
  GI50: 16.6 µM
HL-60 [20]
  CC50: 70.8 µM
CCRF-CEM [21]
  TGI: 24.5 µM
U-251
  TGI: 30.9 µM
Tumor Cell line [22]
  GI50: 28.2 µM
HOP-62 [23]
  TGI: 30.2 µM
Tumor Cell line [24]
  Log GTI: -4.04
PC-3 [25]
  GI50: 17 µM
ACHN
  GI50: 17.8 µM
MDA-MB-435 [26]
  TGI: 31.6 µM
HOP-92
  GI50: 15.1 µM
CCRF-CEM [27]
  GI50: 5.01 µM
HCT-116
  TGI: 29.5 µM
OVCAR-3
  GI50: 15.1 µM
SNB-75
  TGI: 35.5 µM
HCT-15
  TGI: 33.9 µM
NCI-H322M [28]
  GI50: 17.4 µM
M14
  TGI: 34.7 µM
RXF 393
  CC50: 83.2 µM
BT-549
  TGI: 35.5 µM
Hs-578T
  GI50: 28.2 µM
IGROV-1 [29]
  TGI: 29.5 µM

Source: ChEMBL document CHEMBL1135808, “A new type of mixed anhydride and its applications to the synthesis of 7-substituted 8-chloro-5,5-dioxoimidazo[1,2-b][1,4,2]benzodithiazines with in vitro antitumor activity” (2002)
